Biological target: human NaV 1.7 (Homo sapiens, UniProt Q15858)
Assay: E-VIPR optical membrane potential assay with electrical stimulation
Format: cell-based
Conditions: sodium channel inhibition; read-out: Binned Activity Data (IC50)
Outline: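 Membrane-potential read-out: background-subtracted 460 nm/580 nm ratio during a 9 s current-controlled stimulus, 400 Hz scan. Before stimulation, NaV1.7-HEK cells carried coumarin/oxonol dye and compound (final DMSO 0.625%) for 20–35 min at room temperature; tetracaine 125 μM served as positive control.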

human NaV 1.7, sequence (Q15858 whole entry): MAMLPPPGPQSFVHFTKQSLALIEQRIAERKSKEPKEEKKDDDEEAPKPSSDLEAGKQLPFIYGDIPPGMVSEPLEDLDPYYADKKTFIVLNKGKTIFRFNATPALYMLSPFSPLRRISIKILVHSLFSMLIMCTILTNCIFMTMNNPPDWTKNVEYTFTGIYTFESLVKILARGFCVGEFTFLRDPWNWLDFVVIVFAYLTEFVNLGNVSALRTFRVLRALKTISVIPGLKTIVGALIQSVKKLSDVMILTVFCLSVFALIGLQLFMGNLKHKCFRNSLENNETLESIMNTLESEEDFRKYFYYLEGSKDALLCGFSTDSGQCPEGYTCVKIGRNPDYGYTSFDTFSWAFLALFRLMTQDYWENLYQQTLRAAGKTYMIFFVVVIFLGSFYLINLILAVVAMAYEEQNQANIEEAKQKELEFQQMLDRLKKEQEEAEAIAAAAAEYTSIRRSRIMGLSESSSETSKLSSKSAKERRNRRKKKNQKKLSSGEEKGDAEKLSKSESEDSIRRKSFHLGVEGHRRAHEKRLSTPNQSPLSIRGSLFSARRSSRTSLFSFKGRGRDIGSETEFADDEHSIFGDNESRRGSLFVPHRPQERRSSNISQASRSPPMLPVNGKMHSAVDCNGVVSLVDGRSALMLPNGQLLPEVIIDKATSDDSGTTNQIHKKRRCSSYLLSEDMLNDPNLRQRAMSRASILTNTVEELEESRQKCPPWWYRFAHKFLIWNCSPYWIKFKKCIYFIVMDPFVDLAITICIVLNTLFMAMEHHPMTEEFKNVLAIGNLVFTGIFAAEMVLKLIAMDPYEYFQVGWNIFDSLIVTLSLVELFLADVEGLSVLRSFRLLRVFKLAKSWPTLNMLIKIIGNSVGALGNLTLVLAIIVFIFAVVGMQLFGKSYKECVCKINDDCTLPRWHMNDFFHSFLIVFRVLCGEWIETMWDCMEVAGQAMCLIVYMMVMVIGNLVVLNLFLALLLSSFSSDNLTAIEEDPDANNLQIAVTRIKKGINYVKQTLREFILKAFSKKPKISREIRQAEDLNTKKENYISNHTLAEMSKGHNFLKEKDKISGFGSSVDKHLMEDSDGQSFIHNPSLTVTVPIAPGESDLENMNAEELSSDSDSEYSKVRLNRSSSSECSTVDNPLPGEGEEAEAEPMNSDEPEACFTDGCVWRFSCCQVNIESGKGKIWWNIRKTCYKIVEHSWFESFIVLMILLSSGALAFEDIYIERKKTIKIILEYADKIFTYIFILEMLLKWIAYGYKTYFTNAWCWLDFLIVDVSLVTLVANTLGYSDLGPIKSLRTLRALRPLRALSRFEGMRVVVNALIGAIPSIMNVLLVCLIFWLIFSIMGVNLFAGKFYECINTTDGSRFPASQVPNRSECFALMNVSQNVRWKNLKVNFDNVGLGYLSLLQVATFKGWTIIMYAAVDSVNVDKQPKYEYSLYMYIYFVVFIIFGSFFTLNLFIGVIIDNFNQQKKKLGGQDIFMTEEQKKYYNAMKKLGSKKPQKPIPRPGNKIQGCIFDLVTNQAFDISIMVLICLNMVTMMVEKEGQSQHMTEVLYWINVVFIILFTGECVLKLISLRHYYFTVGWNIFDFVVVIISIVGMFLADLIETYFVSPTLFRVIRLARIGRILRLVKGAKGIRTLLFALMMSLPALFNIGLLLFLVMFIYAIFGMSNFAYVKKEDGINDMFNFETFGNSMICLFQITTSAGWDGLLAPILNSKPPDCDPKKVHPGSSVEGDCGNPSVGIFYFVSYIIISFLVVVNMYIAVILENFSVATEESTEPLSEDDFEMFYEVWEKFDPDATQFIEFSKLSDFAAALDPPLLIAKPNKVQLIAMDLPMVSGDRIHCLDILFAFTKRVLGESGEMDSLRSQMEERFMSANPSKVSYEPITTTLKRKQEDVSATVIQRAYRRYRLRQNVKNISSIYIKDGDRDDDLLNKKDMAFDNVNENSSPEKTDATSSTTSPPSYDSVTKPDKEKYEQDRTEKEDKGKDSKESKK

Row | SMILES | IC50
1 | CC(C)S(=O)(=O)c1ccc(C(=O)N2CCC3(CC2)Oc2cc(CO)ccc2-n2c(C#N)ccc23)cc1 [Compound 431] | ≤ 2000 nM
2 | COc1ccc(C(=O)N2CCC3(CC2)Oc2ccccc2-c2c3cnn2C)cc1C [Compound 433] | ≤ 2000 nM
3 | COc1cc(Cl)ccc1C(=O)N1CCC2(CC1)Oc1cc(Cl)ccc1-n1cccc12 [Compound 434] | ≤ 2000 nM
4 | COc1cc(C(=O)N2CCC3(CC2)Oc2ccc(F)cc2-c2nn(C)cc23)ccc1OC(C)C [Compound 435] | ≤ 2000 nM
5 | CC(C)CS(=O)(=O)c1ccc(C(=O)N2CCC3(CC2)Oc2ccccc2-n2c(C#N)ccc23)cc1 [Compound 436] | ≤ 2000 nM
6 | COc1cc(C(=O)N2CCC3(CC2)Oc2ccccc2-n2cccc23)ccc1O[C@@H]1CCC[C@H]1O [Compound 437] | ≤ 2000 nM
7 | COc1ccc(C(=O)N2CCC3(CC2)Oc2ccccc2-n2c(C(F)(F)F)ccc23)nc1 [Compound 438] | ≤ 2000 nM
8 | Cn1ncc2c1-c1ccccc1OC21CCN(C(=O)c2cccc3nccnc23)CC1 [Compound 439] | ≤ 2000 nM
9 | Cc1ccc2c(c1)OC1(CCN(C(=O)c3ccc(S(=O)(=O)C(C)C)cc3)CC1)c1ccc(C#N)n1-2 [Compound 440] | ≤ 2000 nM
10 | COc1cc(C(=O)N2CCC3(CC2)Oc2ccccc2-c2c3cnn2C)ccc1C1CC1 [Compound 442] | ≤ 2000 nM
11 | Cc1cc(C(=O)N2CCC3(CC2)Oc2ccccc2-n2cccc23)ccc1C(C)(C)O [Compound 443] | ≤ 2000 nM
12 | Cn1ncc2c1-c1ccccc1OC21CCN(C(=O)c2ccc3[nH]ncc3c2)CC1 [Compound 444] | > 5000 nM
13 | CCOc1cccc(C(=O)N2CCC3(CC2)Oc2ccccc2-n2c3ccc2S(C)(=O)=O)c1F [Compound 445] | 2000 to 5000 nM
14 | CCn1ncc2c1-c1cc(F)ccc1OC21CCN(C(=O)c2ccccc2OC(F)F)CC1 [Compound 446] | ≤ 2000 nM
15 | Cc1cc(C(C)(C)O)ccc1C(=O)N1CCC2(CC1)Oc1ccccc1-c1c2cnn1C [Compound 447] | ≤ 2000 nM
16 | CN(C)C(=O)c1ccccc1C(=O)N1CCC2(CC1)Oc1ccccc1-c1c2cnn1C [Compound 448] | 2000 to 5000 nM
17 | COC[C@@H](C)Oc1ccc(C(=O)N2CCC3(CC2)Oc2ccccc2-n2cccc23)cc1OC [Compound 449] | ≤ 2000 nM
18 | Cn1ncc2c1-c1ccccc1OC21CCN(C(=O)c2ccccc2OC(F)(F)F)CC1 [Compound 452] | ≤ 2000 nM
19 | Cc1cc(C(=O)N2CCC3(CC2)Oc2cc(Cl)ccc2-n2cccc23)ccc1C#N [Compound 453] | ≤ 2000 nM
20 | CCc1ccc(C(=O)N2CCC3(CC2)Oc2cc(CN(C)C)ccc2-n2cccc23)cc1OC [Compound 454] | 2000 to 5000 nM
21 | CC(C)(O)c1ccc(C(=O)N2CCC3(CC2)Oc2ccccc2-n2c(C(F)(F)F)ccc23)cn1 [Compound 455] | > 5000 nM
22 | CCS(=O)(=O)c1ccc(C(=O)N2CCC3(CC2)Oc2ccccc2-n2c(C(F)(F)F)ccc23)cc1 [Compound 456] | ≤ 2000 nM
23 | COc1cccc2c(C(=O)N3CCC4(CC3)Oc3ccccc3-c3c4cnn3C)c[nH]c12 [Compound 460] | ≤ 2000 nM
24 | Cc1cc(C(=O)N2CCC3(CC2)Oc2ccccc2-n2c(C#N)ccc23)ccc1OCC(=O)O [Compound 462] | 2000 to 5000 nM
25 | COc1cccc2[nH]cc(C(=O)N3CCC4(CC3)Oc3ccccc3-c3c4cnn3C)c12 [Compound 463] | ≤ 2000 nM
26 | CC(C)Oc1ccc(C(=O)N2CCC3(CC2)Oc2ccccc2-c2c3cnn2C)cc1 [Compound 464] | ≤ 2000 nM

Row | SMILES | IC50
27 | COc1cc(C)ccc1C(=O)N1CCC2(CC1)Oc1ccccc1-c1c2cnn1C [Compound 465] | ≤ 2000 nM
28 | COc1cc(C(=O)N2CCC3(CC2)Oc2ccccc2-n2cccc23)ccc1OCCCO [Compound 466] | ≤ 2000 nM
29 | Cn1ncc2c1-c1ccc(F)cc1OC21CCN(C(=O)c2ccccc2OC(F)(F)F)CC1 [Compound 468] | ≤ 2000 nM
30 | COCCOc1ccc(C(=O)N2CCC3(CC2)Oc2ccccc2-c2c3cnn2CCOC)cc1OC [Compound 469] | 2000 to 5000 nM
31 | COc1ccc(C(=O)N2CCC3(CC2)Oc2ccccc2-c2c3cnn2C)c(O)c1 [Compound 470] | 2000 to 5000 nM
32 | O=C(c1cccnc1Oc1ccc(F)cc1)N1CCC2(CC1)Oc1ccccc1-n1c(C(F)(F)F)ccc12 [Compound 472] | ≤ 2000 nM
33 | Cn1ncc2c1-c1ccccc1OC21CCN(C(=O)c2ccc(CC(C)(C)O)cc2)CC1 [Compound 473] | ≤ 2000 nM
34 | COc1cc(OC)c(C(=O)N2CCC3(CC2)Oc2ccccc2-n2cccc23)cc1CO [Compound 474] | 2000 to 5000 nM
35 | COc1ccc(F)c(C(=O)N2CCC3(CC2)Oc2cc(Cl)ccc2-n2cccc23)c1 [Compound 475] | ≤ 2000 nM
36 | COc1ccc(F)cc1C(=O)N1CCC2(CC1)Oc1ccccc1-c1c2cnn1C [Compound 476] | ≤ 2000 nM
37 | COc1ccc(C(=O)N2CCC3(CC2)Oc2ccccc2-n2cccc23)cc1C(F)(F)F [Compound 477] | ≤ 2000 nM
38 | CCOc1cccc(C(=O)N2CCC3(CC2)Oc2cc(Cl)ccc2-n2cccc23)c1 [Compound 478] | ≤ 2000 nM
39 | COc1ccc(C(=O)N2CCC3(CC2)Oc2cc(F)ccc2-n2c(C#N)ccc23)cc1C(F)(F)F [Compound 479] | > 5000 nM
40 | COc1ccc2c(c1)-c1c(cnn1C)C1(CCN(C(=O)c3ccccc3OC(F)F)CC1)O2 [Compound 480] | ≤ 2000 nM
41 | CC(C)(C)S(=O)(=O)c1ccc(C(=O)N2CCC3(CC2)Oc2ccccc2-n2c(C(F)(F)F)ccc23)cc1 [Compound 483] | ≤ 2000 nM
42 | COc1cc(C(F)(F)F)ccc1C(=O)N1CCC2(CC1)Oc1cc(Cl)ccc1-n1cccc12 [Compound 484] | ≤ 2000 nM
43 | CCOc1cccc(C(=O)N2CCC3(CC2)Oc2ccccc2-n2c(C#N)ccc23)c1F [Compound 485] | ≤ 2000 nM
44 | Cn1cc2c(n1)-c1cc(F)ccc1OC21CCN(C(=O)c2ccc(C(C)(C)O)cc2)CC1 [Compound 486] | ≤ 2000 nM
45 | COc1cccc2c1c(C(=O)N1CCC3(CC1)Oc1ccccc1-c1c3cnn1C)cn2C [Compound 487] | ≤ 2000 nM
46 | CCc1ccc(C(=O)N2CCC3(CC2)Oc2cc(Cl)ccc2-n2cccc23)cc1O [Compound 489] | 2000 to 5000 nM
47 | Cc1cc(C(=O)N2CCC3(CC2)Oc2cccc(C)c2-n2c(C#N)ccc23)ccc1OC(C)C [Compound 490] | ≤ 2000 nM
48 | Cc1cccc(C(=O)N2CCC3(CC2)Oc2ccccc2-c2c3cnn2C)c1 [Compound 491] | > 5000 nM
49 | CNS(=O)(=O)c1ccc(C(=O)N2CCC3(CC2)Oc2ccccc2-c2c3cnn2C)cc1 [Compound 494] | ≤ 2000 nM
50 | Cn1ncc2c1-c1ccccc1OC21CCN(C(=O)c2ccc(OCCO)cc2)CC1 [Compound 496] | > 5000 nM
51 | COc1cc(C(=O)N2CCC3(CC2)Oc2cc(Cl)ccc2-n2cccc23)ccc1C(C)(C)OC [Compound 497] | ≤ 2000 nM
52 | CN(C)c1cc(C(=O)N2CCC3(CC2)Oc2ccccc2-c2c3cnn2C)ccn1 [Compound 499] | 2000 to 5000 nM

Row | SMILES | IC50
53 | Cc1cc(C(=O)N2CCC3(CC2)Oc2ccccc2-c2[nH]ncc23)ccc1OC(C)C [Compound 500] | ≤ 2000 nM
54 | CC(C)NS(=O)(=O)c1ccc(C(=O)N2CCC3(CC2)Oc2ccccc2-c2nn(C)cc23)cc1 [Compound 501] | ≤ 2000 nM
55 | Cc1ccc(C(=O)N2CCC3(CC2)Oc2cc(Cl)ccc2-n2cccc23)c(=O)n1C [Compound 502] | ≤ 2000 nM
56 | Cc1nc2ccc(C(=O)N3CCC4(CC3)Oc3ccccc3-n3c(C(F)(F)F)ccc34)cc2s1 [Compound 503] | ≤ 2000 nM
57 | CS(=O)(=O)c1ccc(C(=O)N2CCC3(CC2)Oc2ccccc2-n2c(C#N)ccc23)cc1C(F)(F)F [Compound 504] | ≤ 2000 nM
58 | O=C(c1ccc2nc(Cl)sc2c1)N1CCC2(CC1)Oc1ccccc1-n1c(C(F)(F)F)ccc12 [Compound 505] | 2000 to 5000 nM
59 | Cn1ncc2c1-c1ccccc1OC21CCN(C(=O)c2ccc(C(C)(C)O)cc2)CC1 [Compound 506] | ≤ 2000 nM
60 | COc1cc(C(=O)N2CCC3(CC2)Oc2ccccc2-c2c3cnn2C)ccc1OCC(N)=O [Compound 507] | > 5000 nM
61 | CC(C)S(=O)(=O)c1ccc(C(=O)N2CCC3(CC2)Oc2ccccc2-n2c(F)ccc23)cc1 [Compound 508] | ≤ 2000 nM
62 | Cc1cc(C(=O)N2CCC3(CC2)Oc2ccccc2-n2c(C#N)ccc23)ccc1S(C)(=O)=O [Compound 509] | ≤ 2000 nM
63 | CCc1ccc(C(=O)N2CCC3(CC2)Oc2cc(C#N)ccc2-n2cccc23)cc1OC [Compound 511] | ≤ 2000 nM
64 | COc1cc(C(=O)N2CCC3(CC2)Oc2cc(Cl)ccc2-n2cccc23)ccc1C1CC1 [Compound 512] | ≤ 2000 nM
65 | CS(=O)(=O)c1cccc(C(=O)N2CCC3(CC2)Oc2cc(Cl)ccc2-n2cccc23)c1 [Compound 513] | ≤ 2000 nM
66 | CC(=O)NCc1ccc2n1-c1ccccc1OC21CCN(C(=O)c2ccc(OC(C)C)c(C)c2)CC1 [Compound 514] | ≤ 2000 nM
67 | Cn1ncc2c1-c1ccccc1OC21CCN(C(=O)c2ccc(OC(F)F)cc2OC(F)F)CC1 [Compound 515] | ≤ 2000 nM
68 | Cc1c(CO)cccc1C(=O)N1CCC2(CC1)Oc1ccccc1-n1c(C#N)ccc12 [Compound 516] | ≤ 2000 nM
69 | CC(C)Oc1ccc(C(=O)N2CCC3(CC2)Oc2ccccc2-n2cccc23)cc1C(N)=O [Compound 517] | ≤ 2000 nM
70 | Cn1ncc2c1-c1ccc(Cl)cc1OC21CCN(C(=O)c2ccccc2OC(F)(F)F)CC1 [Compound 518] | ≤ 2000 nM
71 | COc1cccc(F)c1C(=O)N1CCC2(CC1)Oc1ccccc1-n1c(C#N)ccc12 [Compound 519] | ≤ 2000 nM
72 | CCNS(=O)(=O)c1ccc(C(=O)N2CCC3(CC2)Oc2ccccc2-c2c3cnn2C)cc1 [Compound 521] | ≤ 2000 nM
73 | Cc1ccc2c(c1)OC1(CCN(C(=O)c3ccc(S(C)(=O)=O)c(C)c3)CC1)c1ccc(C#N)n1-2 [Compound 522] | ≤ 2000 nM
74 | CNS(=O)(=O)c1ccc(C(=O)N2CCC3(CC2)Oc2ccccc2-c2nn(C)cc23)cc1C [Compound 523] | ≤ 2000 nM
75 | Cn1ncc2c1-c1ccccc1OC21CCN(C(=O)c2ccc3nc(N)sc3c2)CC1 [Compound 524] | ≤ 2000 nM
76 | Cc1cc(C(=O)N2CCC3(CC2)Oc2ccccc2-c2ncn(C)c23)ccc1OC(C)C [Compound 525] | ≤ 2000 nM
